Here are results for 5 compounds from publication PMC9974930 (Journal of medicinal chemistry, 2023).

In data set [1] the target is T1, recombinant human sEH (HsEH) (Homo sapiens, UniProt P34913).
T1 sequence (P34913 1-555): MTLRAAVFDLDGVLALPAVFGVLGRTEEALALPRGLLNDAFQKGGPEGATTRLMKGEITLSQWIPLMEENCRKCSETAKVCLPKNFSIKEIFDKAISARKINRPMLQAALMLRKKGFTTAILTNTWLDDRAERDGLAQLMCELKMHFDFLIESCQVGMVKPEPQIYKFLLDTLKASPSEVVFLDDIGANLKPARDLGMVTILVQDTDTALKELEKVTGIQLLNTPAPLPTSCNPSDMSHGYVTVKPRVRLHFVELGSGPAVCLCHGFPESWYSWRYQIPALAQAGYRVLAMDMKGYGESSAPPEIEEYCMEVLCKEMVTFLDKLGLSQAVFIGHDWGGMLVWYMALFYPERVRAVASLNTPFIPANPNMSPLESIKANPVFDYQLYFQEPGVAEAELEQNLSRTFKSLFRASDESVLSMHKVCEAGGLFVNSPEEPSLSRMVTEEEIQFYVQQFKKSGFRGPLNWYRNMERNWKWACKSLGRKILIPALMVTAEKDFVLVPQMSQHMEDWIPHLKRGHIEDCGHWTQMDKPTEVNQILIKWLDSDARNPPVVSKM
Briefly: biochemical.

Data set [2] has as its target T2, murine sEH (MsEH) (Mus musculus, UniProt P34914).
T2 sequence (P34914 1-554): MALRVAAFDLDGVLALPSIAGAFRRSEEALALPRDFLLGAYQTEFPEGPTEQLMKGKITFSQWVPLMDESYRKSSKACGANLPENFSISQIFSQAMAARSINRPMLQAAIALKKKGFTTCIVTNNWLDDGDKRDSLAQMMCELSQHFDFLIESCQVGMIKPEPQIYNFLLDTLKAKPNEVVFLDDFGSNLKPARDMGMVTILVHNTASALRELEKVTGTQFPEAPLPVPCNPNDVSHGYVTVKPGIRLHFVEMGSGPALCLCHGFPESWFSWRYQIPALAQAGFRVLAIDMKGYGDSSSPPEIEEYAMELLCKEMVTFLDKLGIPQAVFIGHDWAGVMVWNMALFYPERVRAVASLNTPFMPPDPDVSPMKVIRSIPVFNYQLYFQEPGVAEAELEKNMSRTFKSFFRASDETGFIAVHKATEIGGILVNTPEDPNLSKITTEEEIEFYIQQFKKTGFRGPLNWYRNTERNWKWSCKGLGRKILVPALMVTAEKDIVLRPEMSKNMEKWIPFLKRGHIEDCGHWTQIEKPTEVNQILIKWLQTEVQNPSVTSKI
Briefly: sEH inhibition, fluorescent-based assay with PHOME substrate. It counts as biochemical.

The test system of data set [3] is CFA-induced AIA mice. Briefly: CFA-induced arthritis. It counts as in vivo, Kunming mice. The settings on record: 10 mg / kg ip; for body weight change: 24 h of drug treatment.
The subject of data set [4] is COX-2, sEH, NOS-2 and VCAM. Put plainly: Western blot of inflammatory factors in plasma, LPS-induced sepsis model. It counts as in vivo, C57BL/6 mice. The settings on record: 5 mg / kg ip.
For data set [5], the system named is IL-6, MCP-5 and TNF-α. Put plainly: ELISA of plasma inflammatory factors, LPS-induced sepsis model. It counts as in vivo, C57BL/6 mice. The settings on record: 5 mg / kg ip. In general terms: In an ELISA, binding on a coated surface is turned into a signal by an enzyme label.
The nature of data set [6]: Pharmacokinetic study in vivo.
A short description of data set [7]: Microsomal stability in rat liver microsomes. (Liver microsomes are vesicles of endoplasmic reticulum, rich in cytochrome P450 enzymes.)
A short description of data set [8]: Microsomal stability in human liver microsomes.
The subject of data set [9] is LPS-induced sepsis model. Briefly: LPS-induced sepsis model, survival. It counts as in vivo, C57BL/6 mice. The settings on record: 28 hours; LPS 30 mg / kg ip; 5 mg / kg ip at 4 h and 12 h later.
Setting [10] is: both, Sprague-Dawley, rat, in vivo, iv, 10 mg/kg.

Read-outs that look alike come from different tables or passages of the source.

In the case of `C[C@]12C[C@@H]3C[C@](C)(C1)C[C@@](NC(=O)Nc1ccc(C(=O)N4CCC(C(=O)N5CCN(CCO)CC5)CC4)cc1F)(C3)C2` [A4, 1-((1r,3R,5S,7r)-3,5-Dimethyladamantan-1-yl)-3-(2-fluoro-4-(4-(4-(2-hydroxyethyl)piperazine-1-carbonyl)piperidine-1-carbonyl)phenyl)urea], the figures for the IC50 in [1] and in data set [2] were 12.5 nM and 0.32 nM, respectively.

Consider `CCC(=O)N1CCCN(C(=O)C2CCCN(Cc3ccc(NC(=O)N[C@@]45C[C@@H]6C[C@@](C)(C[C@@](C)(C6)C4)C5)c(F)c3)C2)CC1` (stereo partly drawn) [G1, 1-((1r,3R,5S,7r)-3,5-Dimethyladamantan-1-yl)-3-(2-fluoro-4-((3-(4-propionyl-1,4-diazepane-1-carbonyl)piperidin-1-yl)methyl)phenyl)urea], for which, in data set [1], the “LLE (ligand lipophilicity efficiency)” value is on record as 7.553. Moreover, in [3], the “effect on paw swelling rate, in words” value was “significantly reduced the swelling rate of mouse paw thickness”; the “increase of pain valve (pain threshold, hot plate)” value was determined as 70.10%; the “reduced foot swelling, thickness” value is 21.4%; the “reduced foot swelling, width” value was found to be 6.98%. In addition, in data set [3], the body weight change entry is given as “increase in body weight”. Further, in [3] (hot plate), the “effect on pain threshold, in words” value is “faster onset of analgesia than celecoxib”; the “time after administration at which analgesic effect began” value was 10 min; the “time of peak analgesic effect” value is 2 h. Moreover, in [4], the COX-2 expression levels result was “higher than in the control group” and the NOS-2 expression entry was “reduced NOS-2 expression”. Further, in [4] (compared to the model group), the “expression of sEH” value is listed as “significantly reduced the expression of sEH”. The “vascular cell adhesion molecule (VCAM)” value in data set [4] (compared to the solvent group) was “little change”. Besides, in [5], the IL-6 levels result is listed as “significant reduction in IL-6 levels”, the TNF-α levels result is on record as “considerably lowered TNF-α levels” and the “effect of lowering MCP-5” value is listed as “lower than dexamethasone”. For the same compound, in data set [6] (setting [10]), the AUC(0-inf) (commonly total exposure, with the tail of the curve extrapolated) was found to be 0.0115 µM·h and the clearance – broadly, the volume of plasma or blood freed of the substance per unit of time – is 4.83 mL/min/kg. In [6] (both, Sprague-Dawley, rat, in vivo, po, 50 mg/kg), this compound gave an AUC(0-inf) of 0.0102 µM·h. For the same compound, in [6] (rats, po 50 mg / kg), the “CL” value turned out to be 28.3 mL/min/kg and the “VZ” value was 13.12 L/kg. Also, the “Mean concentration of G1 in microsomal buffer” value (shortened to “Mean concentration of G1”) in data set [7] (time 0) was 100 µg/mL. Moreover, the “Mean concentration of G1” value in data set [7] (time 10) was determined as 75.04 µg/mL. For the same compound, in data set [7] (time 30), the “Mean concentration of G1” value was determined as 66.63 µg/mL. The “Mean concentration of G1” value in [7] (time 60) was determined as 62.01 µg/mL. Besides, in data set [8] (time 0), the “Mean concentration of G1” value was 100 µg/mL. The “Mean concentration of G1” value in data set [8] (time 10) is 81.12 µg/mL. Also, the “Mean concentration of G1” value in [8] (time 30) is 74.76 µg/mL. In addition, the “Mean concentration of G1” value in data set [8] (time 60) came to 68.78 µg/mL.

With `CCN(CC)CCN1CCC(CC(=O)N2CCCN(Cc3ccc(NC(=O)N[C@@]45C[C@@H]6C[C@@](C)(C[C@@](C)(C6)C4)C5)c(F)c3)CC2)CC1` [I8, 1-(4-((4-(2-(1-(2-(Diethylamino)ethyl)piperidin-4-yl)acetyl)-1,4-diazepan-1-yl)methyl) −2-fluorophenyl)-3-((1r,3R,5S,7r)-3,5-dimethyladamantan-1-yl)urea], in [1] (LLE = pIC50-cLogP), the “LLE (ligand lipophilicity efficiency)” value is recorded as 3.910.

For `Cc1ccc(-c2cc(C(F)(F)F)nn2-c2ccc(S(N)(=O)=O)cc2)cc1` [celecoxib, reference compound], in data set [3], the “reduced foot swelling, thickness” value stood at 17.99%; the “reduced foot swelling, width” value turned out to be 6.4%; the body weight change entry is on record as “increase in body weight”. In [3] (hot plate), the “effect on pain threshold, in words” value is listed as “did not significantly raise the pain threshold at 2 h”.

Turning to `C[C@@H]1C[C@H]2[C@@H]3CCC4=CC(=O)C=C[C@]4(C)[C@@]3(F)[C@@H](O)C[C@]2(C)[C@@]1(O)C(=O)CO` [dexamethasone, reference compound], the survival rate entry in data set [9] was “all of the mice in the dexamethasone group died”. For the same compound, in data set [4], the COX-2 expression levels result is reported as “higher than in the control group”. Besides, in data set [5], the IL-6 levels entry is “significant reduction in IL-6 levels” and the TNF-α levels result is “considerably lowered TNF-α levels”.
